# Assay results as given in US10350164B2, “Process for preparing a dry powder formulation comprising an anticholinergic, a corticosteroid and a beta-adrenergic” (CHIESI FARMACEUTICI S.p.A., priority 2017, dated 2019).
# How the values were obtained:
# Type in all cases: physicochemical
# [1] = Particle size distribution (PSD) by Malvern analysis, initially and after open-tray exposure
# Procedure: The size of the particles active is determined by measuring the characteristic equivalent sphere diameter, known as volume diameter, by laser diffraction. […] However, other equivalent apparatus may be used.
# (§1) Thin layer (˜0.5 cm) in open tray for 3 days at 30° C./65% relative humidity (RH);
# (§2) Thin layer (˜0.5 cm) in open tray for 4 hours at 25° C./90% RH
# (i) particle size distribution (PSD) in terms of d(v0.1), d(v0.5) and d(v0.9) by Malvern analysis, […]
# [2] = Specific Surface Area (SSA) by BET nitrogen adsorption
# Procedure: (§3) Co-micronized microparticles and reference micronized glycopyrronium bromide were exposed to the following conditions:
# as §1, §2
# (2) Specific Surface Area (SSA) by Brunauer-Emmett-Teller (BET) nitrogen adsorption method according to a known procedure, and […]
# [3] = Recrystallization water by Dynamic Vapour Sorption (DVS)
# Procedure: as §3, §1, §2
# (3) recrystallization of water using a Dynamic Vapour Sorption (DVS) instrument (Mettler Toledo GmbH, Switzerland).
# [4] = Aerosol performance by Next Generation Impactor (NGI) from multidose dry powder inhaler; details: for Mid Fine Particle Mass: between 2.0 and 5.0 micron; for Fine Particle Mass: particle size equal to or lower than 5.0 micron
# Procedure: It is calculated by the percentage ratio of the fine particle mass (formerly fine particle dose) to the delivered dose.
# The delivered dose is calculated from the cumulative deposition in the apparatus, while the fine particle mass is calculated from the deposition of particles having a diameter <5.0 microns.
# After aerosolization of 3 doses from the inhaler device, the NGI apparatus was disassembled and the amounts of drug deposited in the stages were recovered by washing with a solvent mixture and then quantified by High-Performance Liquid Chromatography (HPLC).
# [5] = Uniformity of distribution of the active ingredients in the blend by HPLC
# Procedure: It is usually determined according to known methods, for instance by taking samples from different parts of the powder and testing the component by HPLC or other equivalent analytical methods.
# The uniformity of distribution of the active ingredients was evaluated by withdrawing 12 samples from different parts of the blend and evaluated by HPLC.
# [6] = Open thin layer 4 hours at 25° C./90% RH
# [7] = Open thin layer 3 days at 30° C./65% RH
# [8] = Example 3 formulation (6/100/12.5 μg)
# [9] = Example 4 formulation (6/100/25 μg)
compound,measurement,setting,value
"C[N+]1(C)CCC(OC(=O)C(O)(c2ccccc2)C2CCCC2)C1 (racemic) [GB, glycopyrronium bromide]",PSD D(v0.9),[1]; Initial,3.95 μm
same,PSD d(v0.1),[1]; Initial,0.60 μm
same,PSD d(v0.5),[1]; Initial,1.54 μm
same,PSD D(v0.9),[1]; [6],1657 μm
same,PSD d(v0.1),[1]; [6],2.74 μm
same,PSD d(v0.5),[1]; [6],156 μm
same,PSD D(v0.9),[1]; [7],7.59 μm
same,PSD d(v0.1),[1]; [7],1.00 μm
same,PSD d(v0.5),[1]; [7],3.91 μm
same,SSA,[2]; Initial,7.31 m^2/g
same,SSA,[2]; [7],1.85 m^2/g
same,Re-crystallization water,[3]; Initial,0.12 % w/w
same,Re-crystallization water,[3]; [7],0.02% w/w
same,Extrafine Particle Fraction <1 μm,[4]; [8],15.4%
same,Extrafine Particle Fraction <2 μm,[4]; [8],37.6%
same,Extrafine Particle Mass <1 μm,[4]; [8],1.8 µg
same,Extrafine Particle Mass <2 μm,[4]; [8],4.39 µg
same,Fine Particle Fraction,[4]; [8],67.2%
same,MMAD,[4]; [8],1.92 μm
same,Mid Fine particle Fraction,[4]; [8],29.6%
same,Mid Fine Particle Mass,[4]; [8],3.46 µg
same,Delivered Dose,"[4]; Example 3 formulation (6/100/12.5 μg), mean±S.D",11.66 (±0.4) μg
same,Fine Particle Mass,[4]; [8],7.85 µg
same,Delivered Dose,[4]; [9],21.30 µg
same,Extrafine Particle Fraction <1 μm,[4]; [9],8.2%
same,Extrafine Particle Fraction <2 μm,[4]; [9],25.8%
same,Extrafine Particle Mass <1 μm,[4]; [9],1.75 µg
same,Extrafine Particle Mass <2 μm,[4]; [9],5.49 µg
same,Fine Particle Fraction,[4]; [9],50.7%
same,MMAD,[4]; [9],2.15 μm
same,Mid Fine particle Fraction,[4]; [9],27.9%
same,Mid Fine Particle Mass,[4]; [9],5.94 µg
same,Fine Particle Mass,[4]; [9],10.8 µg
"CCC(=O)OCC(=O)[C@@]1(OC(=O)CC)[C@@H](C)C[C@H]2[C@@H]3CCC4=CC(=O)C=C[C@]4(C)[C@@]3(Cl)[C@@H](O)C[C@@]21C [BDP, beclometasone dipropionate]",Uniformity of distribution,"[5]; Example 3 formulation (FF 6 μg/BDP 100 μg/GB 12.5 μg per 10 mg carrier), 12 samples, mean value±RSD",101.8 (±1.1)
same,Uniformity of distribution,[5]; Example 4 formulation (FF 6 μg/BDP 100 μg/GB 25 μg per 10 mg carrier),100.2 (±1.2)
